{"source": "ChEMBL document CHEMBL1135849", "about": "“Hydroxamate based inhibitors of adenylyl cyclase. Part 1: the effect of acyclic linkers on P-site binding” (Bioorg Med Chem Lett, 2002)", "data": [{"target": "Adenylate cyclase type 5 (Homo sapiens, UniProt O95622)", "sequence (O95622 whole entry)": "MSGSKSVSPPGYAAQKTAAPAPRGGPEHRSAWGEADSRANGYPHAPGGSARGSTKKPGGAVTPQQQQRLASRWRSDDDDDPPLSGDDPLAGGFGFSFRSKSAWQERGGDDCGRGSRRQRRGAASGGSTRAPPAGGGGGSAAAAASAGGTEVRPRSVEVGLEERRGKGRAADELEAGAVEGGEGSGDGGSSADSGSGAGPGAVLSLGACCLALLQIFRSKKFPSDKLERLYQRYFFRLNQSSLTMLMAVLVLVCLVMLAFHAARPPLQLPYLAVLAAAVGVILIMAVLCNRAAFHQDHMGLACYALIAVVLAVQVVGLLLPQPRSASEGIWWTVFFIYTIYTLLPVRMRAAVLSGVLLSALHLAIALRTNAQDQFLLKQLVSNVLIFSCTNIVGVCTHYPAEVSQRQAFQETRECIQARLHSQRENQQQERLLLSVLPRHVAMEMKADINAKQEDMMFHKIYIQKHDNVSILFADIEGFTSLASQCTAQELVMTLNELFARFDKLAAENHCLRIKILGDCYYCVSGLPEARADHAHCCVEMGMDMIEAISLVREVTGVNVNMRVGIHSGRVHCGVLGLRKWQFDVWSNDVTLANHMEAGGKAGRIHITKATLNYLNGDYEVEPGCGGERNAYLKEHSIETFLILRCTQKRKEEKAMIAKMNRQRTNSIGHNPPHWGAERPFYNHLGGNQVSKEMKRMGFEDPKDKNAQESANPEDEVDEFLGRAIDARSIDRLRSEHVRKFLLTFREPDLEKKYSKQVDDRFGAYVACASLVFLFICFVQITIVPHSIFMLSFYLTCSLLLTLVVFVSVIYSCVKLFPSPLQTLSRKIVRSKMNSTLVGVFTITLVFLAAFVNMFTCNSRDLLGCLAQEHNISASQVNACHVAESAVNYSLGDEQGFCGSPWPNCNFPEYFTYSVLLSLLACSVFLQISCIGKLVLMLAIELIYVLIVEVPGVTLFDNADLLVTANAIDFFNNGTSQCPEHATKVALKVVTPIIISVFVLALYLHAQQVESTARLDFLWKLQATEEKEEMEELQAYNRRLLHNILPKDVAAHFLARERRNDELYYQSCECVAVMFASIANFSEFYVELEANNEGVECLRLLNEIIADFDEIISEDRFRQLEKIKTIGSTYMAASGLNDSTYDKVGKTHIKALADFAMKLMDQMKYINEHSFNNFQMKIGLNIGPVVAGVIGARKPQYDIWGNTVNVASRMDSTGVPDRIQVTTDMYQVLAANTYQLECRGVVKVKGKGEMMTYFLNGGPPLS", "assay": "Inhibition of recombinant human adenylate cyclase 5 expressed in HEK293 cells", "assay_type": "cell-based", "units": {"IC50": "µM"}, "values": [{"smiles": "Nc1ncnc2c1ncn2CCCCC(=O)O", "IC50": "> 200"}, {"smiles": "CC(C)(C)OC(=O)N(CCn1cnc2c(N)ncnc21)CC(=O)O", "IC50": "> 200"}, {"smiles": "Nc1ncnc2c1ncn2CCCCCC(=O)O", "IC50": "> 200"}, {"smiles": "COC(=O)CCCCn1cnc2c(N)ncnc21", "IC50": "> 200"}, {"smiles": "Nc1ncnc2c1ncn2CCCCCCC(=O)O", "IC50": "> 200"}, {"smiles": "Nc1ncnc2c1ncn2CCCOCC(=O)O", "IC50": 140}, {"smiles": "CCOC(=O)COCCCn1cnc2c(N)ncnc21", "IC50": "> 200"}, {"smiles": "CC(=O)N(CCn1cnc2c(N)ncnc21)CC(=O)O", "IC50": "> 200"}, {"smiles": "Nc1ncnc2c1ncn2CCCCCCC(=O)NO", "IC50": "> 200"}, {"smiles": "COC(=O)CN(C)CCn1cnc2c(N)ncnc21", "IC50": "> 200"}, {"smiles": "Nc1ncnc2c1ncn2CCCOCC(=O)NO", "IC50": 94}, {"smiles": "Nc1ncnc2c1ncn2CCCNCC(=O)O", "IC50": "> 200"}, {"smiles": "Nc1ncnc2c1ncn2CCNCC(=O)NO", "IC50": "> 200"}, {"smiles": "CN(CCn1cnc2c(N)ncnc21)CC(=O)NO", "IC50": 15.3}, {"smiles": "CC(=O)N(CCn1cnc2c(N)ncnc21)CC(=O)NO", "IC50": "> 200"}, {"smiles": "COC(=O)CNCCCn1cnc2c(N)ncnc21", "IC50": "> 200"}, {"smiles": "Nc1ncnc2c1ncn2CCNCC(=O)O", "IC50": "> 200"}, {"smiles": "CC(C)(C)OC(=O)N(CCCn1cnc2c(N)ncnc21)CC(=O)NO", "IC50": "> 200"}, {"smiles": "Nc1ncnc2c1ncn2CCCC(=O)NO", "IC50": 7.9}, {"smiles": "CCOC(=O)CCCCCCn1cnc2c(N)ncnc21", "IC50": "> 200"}, {"smiles": "CCOC(=O)CCCCCn1cnc2c(N)ncnc21", "IC50": "> 200"}, {"smiles": "CC(C)(C)OC(=O)N(CCCn1cnc2c(N)ncnc21)CC(=O)O", "IC50": "> 200"}, {"smiles": "COC(=O)CN(CCn1cnc2c(N)ncnc21)C(=O)OC(C)(C)C", "IC50": "> 200"}, {"smiles": "CC(C)(C)OC(=O)N(CCn1cnc2c(N)ncnc21)CC(=O)NO", "IC50": "> 200"}, {"smiles": "COC(=O)CNCCn1cnc2c(N)ncnc21", "IC50": "> 200"}, {"smiles": "Nc1ncnc2c1ncn2CCC(=O)NO", "IC50": "> 200"}, {"smiles": "COC(=O)CN(CCn1cnc2c(N)ncnc21)C(C)=O", "IC50": "> 200"}, {"smiles": "Nc1ncnc2c1ncn2CCCNCC(=O)NO", "IC50": "> 200"}, {"smiles": "Nc1ncnc2c1ncn2CCCCC(=O)NO", "IC50": 7.6}, {"smiles": "Nc1ncnc2c1ncn2CCCCCC(=O)NO", "IC50": 35.4}]}]}
